Test results as given in US8741906B2 (priority 2011, dated 2014).

Tests used:
[1] = molecular target: T1, human CB1 receptors (Homo sapiens, UniProt P21554); experiment: functional cAMP assay, human CB1; type: cell-based; conditions: CHO cells expressing human CB1, cAMP; read-out: human CB1 EC50
T1 construct: expressed in transfected cells; host or cells: CHO cells
In short: (§1)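 CHO-hCB1/hCB2 cells, KRB + 1 mM IBMX preincubation 30 min 30 °C; cpd 30 min 30 °C; lysis + TR-FRET cAMP detection, 2 h RT; cAMP from std curve; EC50.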

[2] = molecular target: T2, human CB2 receptors (Homo sapiens, UniProt P34972); experiment: functional cAMP assay, human CB2; type: cell-based; conditions: CHO cells expressing human CB2, cAMP; read-out: human CB2 EC50
T2 construct: expressed in transfected cells; host or cells: CHO cells
In short: as §1

T1 sequence (P21554 whole entry): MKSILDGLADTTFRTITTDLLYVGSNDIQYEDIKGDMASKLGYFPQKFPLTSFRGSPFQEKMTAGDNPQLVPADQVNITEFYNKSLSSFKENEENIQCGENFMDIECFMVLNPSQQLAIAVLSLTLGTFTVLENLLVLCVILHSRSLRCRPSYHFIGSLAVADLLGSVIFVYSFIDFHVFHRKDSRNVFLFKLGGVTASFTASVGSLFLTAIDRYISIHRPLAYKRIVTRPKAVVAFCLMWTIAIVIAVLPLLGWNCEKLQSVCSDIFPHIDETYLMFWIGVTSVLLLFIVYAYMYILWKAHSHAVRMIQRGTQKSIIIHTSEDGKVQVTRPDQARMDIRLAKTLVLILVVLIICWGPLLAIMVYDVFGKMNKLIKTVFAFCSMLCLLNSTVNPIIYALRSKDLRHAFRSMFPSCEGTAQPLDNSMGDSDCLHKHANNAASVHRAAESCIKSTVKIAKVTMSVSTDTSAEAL
T2 sequence (P34972 whole entry): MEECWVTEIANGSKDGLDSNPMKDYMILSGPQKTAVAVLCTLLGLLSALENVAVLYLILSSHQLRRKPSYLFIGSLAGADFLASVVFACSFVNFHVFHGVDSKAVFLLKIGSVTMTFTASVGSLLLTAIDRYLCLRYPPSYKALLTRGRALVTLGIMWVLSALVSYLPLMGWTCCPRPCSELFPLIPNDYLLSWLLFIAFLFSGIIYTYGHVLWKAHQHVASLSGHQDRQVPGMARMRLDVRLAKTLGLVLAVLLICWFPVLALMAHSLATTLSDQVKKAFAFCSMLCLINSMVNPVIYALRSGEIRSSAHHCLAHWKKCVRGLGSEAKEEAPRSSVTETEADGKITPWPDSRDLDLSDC

Compound: C[C@@H](c1ccccc1Cl)n1nnc2c(N3CCC(F)(F)C3)nc(C(C)(C)C)nc21 [Example 87]
- EC50 [1]: 270 nM
- EC50 [2]: 1 nM

Compound: CC(C)(C)c1nc(N2CCC(F)(F)C2)c2nnn(CC(O)c3ccccc3)c2n1 (centres unmarked) [Example 88, 2-[5-tert-Butyl-7-(3,3-difluoro-pyrrolidin-1-yl)-[1,2,3]triazolo[4,5-d]pyrimidin-3-yl]-1-phenyl-ethanol]
- EC50 [1]: 391 nM
- EC50 [2]: 0.9 nM

Compound: CC(C)(C)c1nc(N2CCC(F)(F)C2)c2nnn(Cc3cccc(F)c3Cl)c2n1 [Example 89, 5-tert-Butyl-3-(2-chloro-3-fluoro-benzyl)-7-(3,3-difluoro-pyrrolidin-1-yl)-3H-[1,2,3]triazolo[4,5-d]pyrimidine]
- EC50 [1]: 463 nM
- EC50 [2]: 0.3 nM

Compound: CC(C)(C)c1nc(N2CCC(F)(F)C2)c2nnn(Cc3cc(F)ccc3Cl)c2n1 [Example 90, 5-tert-Butyl-3-(2-chloro-5-fluoro-benzyl)-7-(3,3-difluoro-pyrrolidin-1-yl)-3H-[1,2,3]triazolo[4,5-d]pyrimidine]
- EC50 [1]: 370 nM
- EC50 [2]: 0.5 nM

Compound: CC(C)(C)c1nc(N2C[C@@H](O)C[C@@H]2CO)c2nnn(Cc3ccccc3Cl)c2n1 [Example 93, (3S,5R)-1-[5-tert-Butyl-3-(2-chloro-benzyl)-3H-[1,2,3]triazolo[4,5-d]pyrimidin-7-yl]-5-hydroxymethyl-pyrrolidin-3-ol]
- EC50 [1]: > 10000 nM
- EC50 [2]: 4.5 nM

Compound: CC(C)(C)c1nc(N2CC(F)(F)C[C@@H]2CO)c2nnn(Cc3ccccc3Cl)c2n1 [Example 94, {(R)-1-[5-tert-Butyl-3-(2-chloro-benzyl)-3H-[1,2,3]triazolo[4,5-d]pyrimidin-7-yl]-4,4-difluoro-pyrrolidin-2-yl}-methanol]
- EC50 [1]: > 10000 nM
- EC50 [2]: 1 nM

Compound: CC(C)(C)c1nc(N2CCC(F)(F)C2)c2nnn(Cc3c(Cl)ccc(F)c3Cl)c2n1 [Example 96, 5-tert-Butyl-3-(2,6-dichloro-3-fluoro-benzyl)-7-(3,3-difluoro-pyrrolidin-1-yl)-3H-[1,2,3]triazolo[4,5-c]pyrimidine]
- EC50 [1]: 167 nM
- EC50 [2]: 0.1 nM

Compound: CC(C)(C)c1nc(N2CCC(F)(F)C2)c2nnn(Cc3cccnc3Cl)c2n1 [Example 97, 5-tert-Butyl-3-(2-chloro-pyridin-3-ylmethyl)-7-(3,3-difluoro-pyrrolidin-1-yl)-3H-[1,2,3]triazolo[4,5-c]pyrimidine]
- EC50 [1]: 62.3 nM
- EC50 [2]: 0.1 nM

Compound: CC(C)(C)c1nc(N2CCC(F)(F)C2)c2nnn(Cc3ncccc3Cl)c2n1 [Example 98, 5-tert-Butyl-3-(3-chloro-pyridin-2-ylmethyl)-7-(3,3-difluoro-pyrrolidin-1-yl)-3H-[1,2,3]triazolo[4,5-d]pyrimidine]
- EC50 [1]: 98 nM
- EC50 [2]: 0.1 nM

Compound: CC(C)(C)c1nc(N2CCC(F)(F)C2)c2nnn(Cc3cc(Cl)cnc3Cl)c2n1 [Example 99, 5-tert-Butyl-3-(2,5-dichloro-pyridin-3-ylmethyl)-7-(3,3-difluoro-pyrrolidin-1-yl)-3H-[1,2,3]triazolo[4,5-d]pyrimidine]
- EC50 [1]: 497 nM
- EC50 [2]: 0.2 nM

Compound: CC(C)(C)c1nc(N2CCC(F)(F)C2)c2nnn(Cc3nc(Cl)ccc3Cl)c2n1 [Example 100, 5-tert-Butyl-3-(3,6-dichloro-pyridin-2-ylmethyl)-7-(3,3-difluoro-pyrrolidin-1-yl)-3H-[1,2,3]triazolo[4,5-d]pyrimidine]
- EC50 [1]: 110 nM
- EC50 [2]: 0.1 nM

Compound: Cc1nonc1Cn1nnc2c(N3CCC(F)(F)C3)nc(C(C)(C)C)nc21 [Example 101, 5-tert-Butyl-7-(3,3-difluoro-pyrrolidin-1-yl)-3-(4-methyl-furazan-3-ylmethyl)-3H-[1,2,3]triazolo[4,5-d]pyrimidine]
- EC50 [1]: > 10000 nM
- EC50 [2]: 0.1 nM

Compound: Cc1noc(Cn2nnc3c(N4CCC(F)(F)C4)nc(C(C)(C)C)nc32)n1 [Example 102, 5-tert-Butyl-7-(3,3-difluoro-pyrrolidin-1-yl)-3-(3-methyl-[1,2,4]oxadiazol-5-ylmethyl)-3H-[1,2,3]triazolo[4,5-d]pyrimidine]
- EC50 [1]: > 10000 nM
- EC50 [2]: 0.6 nM

Compound: CC(C)(C)c1nc(N2CCC(F)(F)C2)c2nnn(CCc3ccccc3Cl)c2n1 [Example 103, 5-tert-Butyl-3-[2-(2-chloro-phenyl)-ethyl]-7-(3,3-difluoro-pyrrolidin-1-yl)-3H-[1,2,3]triazolo[4,5-d]pyrimidine]
- EC50 [1]: 415 nM
- EC50 [2]: 0.4 nM

Compound: CC(C)(C)c1nc(N2CCC(F)(F)C2)c2nnn(CCc3cccc(Cl)c3)c2n1 [Example 104, 5-tert-Butyl-3-[2-(3-chloro-phenyl)-ethyl]-7-(3,3-difluoro-pyrrolidin-1-yl)-3H-[1,2,3]triazolo[4,5-d]pyrimidine]
- EC50 [1]: > 10000 nM
- EC50 [2]: 0.9 nM

Compound: CC(C)(C)c1nc(N2CCC(F)(F)C2)c2nnn(CCc3ccc(Cl)cc3)c2n1 [Example 105, 5-tert-Butyl-3-[2-(4-chloro-phenyl)-ethyl]-7-(3,3-difluoro-pyrrolidin-1-yl)-3H-[1,2,3]triazolo[4,5-d]pyrimidine]
- EC50 [1]: > 10000 nM
- EC50 [2]: 6.5 nM

Compound: COc1ccc(Cn2nnc3c(N4CC[C@H](O)C4)nc(C(C)(C)C)nc32)cc1 [Example 106, (S)-1-[5-tert-Butyl-3-(4-methoxy-benzyl)-3H-[1,2,3]triazolo[4,5-d]pyrimidin-7-yl]-pyrrolidin-3-ol]
- EC50 [1]: > 10000 nM
- EC50 [2]: 4.8 nM

Compound: CC(C)(C)c1nc(N2CCC(F)(F)C2)c2nnn([C@@H]3CCOC3)c2n1 [Example 108, 5-tert-Butyl-7-(3,3-difluoro-pyrrolidin-1-yl)-3-(R)-tetrahydro-furan-3-yl-3H-[1,2,3]triazolo[4,5-d]pyrimidine]
- EC50 [1]: > 10000 nM
- EC50 [2]: 0.3 nM

Compound: CC(C)(C)c1nc(N2CCC(F)(F)C2)c2nnn([C@H]3CCOC3)c2n1 [Example 109, 5-tert-Butyl-7-(3,3-difluoro-pyrrolidin-1-yl)-3-(S)-tetrahydro-furan-3-yl-3H-[1,2,3]triazolo[4,5-d]pyrimidine]
- EC50 [1]: > 10000 nM
- EC50 [2]: 0.5 nM

Compound: CC(C)(C)c1nc(N2CCC(F)(F)C2)c2nnn(CC(=O)c3ccccc3Cl)c2n1 [Example 110, 2-[5-tert-Butyl-7-(3,3-difluoro-pyrrolidin-1-yl)-[1,2,3]triazolo[4,5-d]pyrimidin-3-yl]-1-(2-chloro-phenyl)-ethanone]
- EC50 [1]: 250 nM
- EC50 [2]: 0.2 nM

Compound: CC(C)(C)c1nc(N2CCC(F)(F)C2)c2nnn(Cc3c(F)ccc(Cl)c3Cl)c2n1 [Example 111, 5-tert-Butyl-3-(2,3-dichloro-6-fluoro-benzyl)-7-(3,3-difluoro-pyrrolidin-1-yl)-3H-[1,2,3]triazolo[4,5-d]pyrimidine]
- EC50 [1]: 137 nM
- EC50 [2]: 0.2 nM

Compound: CC(C)(C)c1nc(N2CCC(F)(F)C2)c2nnn(Cc3ccccc3S(C)(=O)=O)c2n1 [Example 112, 5-tert-Butyl-7-(3,3-difluoro-pyrrolidin-1-yl)-3-(2-methanesulfonyl-benzyl)-3H-[1,2,3]triazolo[4,5-d]pyrimidine]
- EC50 [1]: 4.7 nM
- EC50 [2]: 0.1 nM

Compound: CC(C)(C)c1nc(N2CCC(F)(F)C2)c2nnn(CCc3ccccn3)c2n1 [Example 113, 5-tert-Butyl-7-(3,3-difluoro-pyrrolidin-1-yl)-3-(2-pyridin-2-yl-ethyl)-3H-[1,2,3]triazolo[4,5-d]pyrimidine]
- EC50 [1]: 201 nM
- EC50 [2]: 0.2 nM

Compound: CC1(Cn2nnc3c(N4CCC(F)(F)C4)nc(C(C)(C)C)nc32)COC1 [Example 114, 5-tert-Butyl-7-(3,3-difluoro-pyrrolidin-1-yl)-3-(3-methyl-oxetan-3-ylmethyl)-3H-[1,2,3]triazolo[4,5-d]pyrimidine]
- EC50 [1]: > 10000 nM
- EC50 [2]: 0.4 nM

Compound: CC(C)(C)c1nc(N2CCC(F)(F)C2)c2nnn(CC(=O)c3cccc(Cl)c3)c2n1 [Example 115, 2-[5-tert-Butyl-7-(3,3-difluoro-pyrrolidin-1-yl)-[1,2,3]triazolo[4,5-d]pyrimidin-3-yl]-1-(3-chloro-phenyl)-ethanone]
- EC50 [1]: > 10000 nM
- EC50 [2]: 0.4 nM

Compound: CC(C)(C)c1nc(N2CCC(F)(F)C2)c2nnn(CC(=O)c3ccc(Cl)cc3)c2n1 [Example 116, 2-[5-tert-Butyl-7-(3,3-difluoro-pyrrolidin-1-yl)-[1,2,3]triazolo[4,5-d]pyrimidin-3-yl]-1-(4-chloro-phenyl)-ethanone]
- EC50 [1]: > 10000 nM
- EC50 [2]: 3 nM

Compound: CC(C)(C)c1nc(N2CCC(F)(F)C2)c2nnn(CC(=O)c3cccnc3)c2n1 [Example 117, 2-[5-tert-Butyl-7-(3,3-difluoro-pyrrolidin-1-yl)-[1,2,3]triazolo[4,5-d]pyrimidin-3-yl]-1-pyridin 3-yl-ethanone]
- EC50 [1]: > 10000 nM
- EC50 [2]: 0.2 nM

Compound: CC(C)(C)c1nc(N2CCC(F)(F)C2)c2nnn(CC(=O)c3ccncc3)c2n1 [Example 118, 2-[5-tert-Butyl-7-(3,3-difluoro-pyrrolidin-1-yl)-[1,2,3]triazolo[4,5-d]pyrimidin-3-yl]-1-pyridin-4-yl-ethanone]
- EC50 [1]: > 10000 nM
- EC50 [2]: 0.9 nM

Compound: CC(C)(C)c1nc(N2CCC(F)(F)C2)c2nnn(Cc3c(Cl)ccc(Cl)c3Cl)c2n1 [Example 119, 5-tert-Butyl-7-(3,3-difluoro-pyrrolidin-1-yl)-3-(2,3,6-trichloro-benzyl)-3H-[1,2,3]triazolo[4,5-d]pyrimidine]
- EC50 [1]: 91 nM
- EC50 [2]: 0.3 nM

Compound: CC(C)(C)c1nc(N2CCC(F)(F)C2)c2nnn(Cc3cccc(C(F)(F)F)c3Cl)c2n1 [Example 120, 5-tert-Butyl-3-(2-chloro-3-trifluoromethyl-benzyl)-7-(3,3-difluoro-pyrrolidin-1-yl)-3H-[1,2,3]triazolo[4,5-d]pyrimidine]
- EC50 [1]: 181 nM
- EC50 [2]: 0.7 nM

Compound: CC(C)(C)c1nc(N2CCC(F)(F)C2)c2nnn(CCc3cccnc3)c2n1 [Example 121, 5-tert-Butyl-7-(3,3-difluoro-pyrrolidin-1-yl)-3-(2-pyridin-3-yl-ethyl)-3H-[1,2,3]triazolo[4,5-d]pyrimidine]
- EC50 [1]: > 10000 nM
- EC50 [2]: 0.3 nM
